{"source": "paper PMC2846816", "about": "(Arthritis and rheumatism, 2009)", "test_in_all_cases": "Fura-2 Ca2+ influx", "assay_type_in_all_cases": "cell-based", "key": {"TRPV4 [1]": {"biological_target": "T1, TRPV4 (Sus scrofa, UniProt B3VP30)", "T1 sequence (B3VP30 1-871)": "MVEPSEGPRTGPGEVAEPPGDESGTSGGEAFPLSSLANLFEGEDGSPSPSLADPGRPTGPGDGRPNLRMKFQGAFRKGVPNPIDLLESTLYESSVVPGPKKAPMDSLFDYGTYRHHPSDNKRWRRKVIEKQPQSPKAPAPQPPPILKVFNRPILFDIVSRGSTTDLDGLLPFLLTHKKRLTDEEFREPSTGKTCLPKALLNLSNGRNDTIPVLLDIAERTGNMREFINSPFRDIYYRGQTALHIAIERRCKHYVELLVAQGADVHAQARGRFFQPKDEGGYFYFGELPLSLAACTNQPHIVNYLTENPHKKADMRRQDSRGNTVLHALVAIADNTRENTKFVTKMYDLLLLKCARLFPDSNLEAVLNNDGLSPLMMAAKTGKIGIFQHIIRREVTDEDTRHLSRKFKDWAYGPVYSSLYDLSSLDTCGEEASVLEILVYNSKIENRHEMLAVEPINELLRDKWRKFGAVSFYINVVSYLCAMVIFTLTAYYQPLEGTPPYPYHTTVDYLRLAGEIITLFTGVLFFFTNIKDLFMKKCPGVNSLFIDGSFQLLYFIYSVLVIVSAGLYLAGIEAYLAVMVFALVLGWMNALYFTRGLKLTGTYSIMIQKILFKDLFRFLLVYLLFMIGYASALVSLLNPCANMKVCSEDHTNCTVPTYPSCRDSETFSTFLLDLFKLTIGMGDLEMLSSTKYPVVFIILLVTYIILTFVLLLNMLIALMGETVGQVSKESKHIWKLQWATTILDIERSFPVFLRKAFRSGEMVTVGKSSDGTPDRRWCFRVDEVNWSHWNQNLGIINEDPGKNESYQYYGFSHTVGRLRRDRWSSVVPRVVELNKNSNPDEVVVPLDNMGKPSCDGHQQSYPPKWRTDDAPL"}, "TRPV4 [2]": {"biological_target": "T1, TRPV4", "remark": "listed apart in the source"}, "TRPV4 [3]": {"biological_target": "T1, TRPV4", "remark": "listed apart in the source"}}, "note": "Counter-ions that a name gives are not always drawn. Like-named read-outs stand apart in the source and are kept apart here."}
{"smiles": "Cl.Cl.Cl.Cl.Cl.Cl.N.N.N.N.N.N.N.N.N.N.N.N.N.N.[O-2].[O-2].[Ru+3].[Ru+3].[Ru+4]", "note": "[Ruthenium Red]", "values": [{"measurement": "IC50", "setting": "TRPV4 [1]", "value": "~5", "unit": "nM"}]}
{"smiles": "CCCCCCCCCC(=O)O[C@@H]1[C@@H](C)[C@@]2(O)[C@@H](C=C(CO)C[C@@]3(O)C(=O)C(C)=C[C@@H]23)[C@@H]2C(C)(C)[C@]12OC(=O)CCCCCCCCC", "note": "[4αPDD]", "values": [{"measurement": "EC50", "setting": "TRPV4 [2]", "value": "~2000", "unit": "nM"}]}
{"smiles": "CN(CCc1ccc(Nc2ncc(-c3cccnc3)s2)cc1)Cc1ccccc1", "note": "[GSK205, N-(4-{2 [methyl(phenylmethyl)amino]ethyl}phenyl)-5-(3-pyridinyl)-1,3-thiazol-2-amine hydrobromide]", "values": [{"measurement": "IC50", "setting": "TRPV4 [3]", "value": "~600", "unit": "nM"}]}
